The text below walks through data of ChEMBL document CHEMBL1151596, “7-Oxa[2.2.1]bicycloheptane-2,3-dicarboxylic acid derivatives as phosphatase inhibitors” (Bioorg Med Chem Lett, 1997).

A short description of test [1]: Effect on the transcription and release of thymidine kinase in a reporter-gene assay (RGA). In kind it is functional.
Test [2] can be described thus: Compound was tested for inhibition of protein phosphatase 2B (PP2B, Calcineurin).
The test system of the next test is Jurkat. Kind of test: Effect on the transcription and release of IL-2 in a reporter-gene assay (RGA). In kind it is functional, cell-based. As to conditions: Homo sapiens.
Test [3] can be described thus: Compound was tested for inhibition of protein phosphatase 2A (PP2A).
Another test relates to T-cell. Nature of the test: Compound was tested for inhibition of IL-2 secretion in mouse T cell line. In kind it is functional, cell-based.
Test [4] in a line: Compound was tested for inhibition of […] ([…]).

Broadly, the IC50 is the concentration that inhibits the measured activity by half. Low readings indicate higher potency, high ones lower potency. For orientation: Ki means a measure of affinity in units of concentration, obtained from inhibition or displacement. Turning to `O=C(O)[C@@H]1[C@H](C(=O)O)[C@H]2CC[C@@H]1O2`, the IC50 in test [1] was 42 µM; with Jurkat, more than 100 µM. Also, the Ki worked out at 3.02 µM in test [2] and 0.17 µM in test [3].

`CN(C)C(=O)[C@H]1[C@@H](C(=O)O)[C@@H]2CC[C@H]1O2`: the half-inhibitory concentration (IC50) stood at 100 µM in test [1], 4.7 µM in the test with Jurkat and 5 µM with T-cell. Further, the inhibitory constant (Ki) in test [2] amounted to 2.78 µM; in test [3] it was 0.18 µM.

`CCOC(=O)[C@@H]1[C@H](C(=O)OCC)[C@H]2CC[C@@H]1O2`: the Ki in test [2] is more than 100 µM.

Regarding `COC(=O)[C@H]1[C@@H](C(=O)O)[C@@H]2CC[C@H]1O2` (single isomer, unassigned), the Ki in test [2] was more than 100 µM.

For the compound `C[C@@]12C(=O)OC(=O)[C@]1(C)[C@H]1CC[C@@H]2O1` [CANTHARIDIN], the inhibition constant Ki in test [2] was determined as 10.8 µM; in test [3] it was 0.065 µM.

Turning to `C/C=C/C[C@@H](C)[C@@H](O)[C@H]1C(=O)N[C@@H](CC)C(=O)N(C)CC(=O)N(C)[C@@H](CC(C)C)C(=O)N[C@@H](C(C)C)C(=O)N(C)[C@@H](CC(C)C)C(=O)N[C@@H](C)C(=O)N[C@H](C)C(=O)N(C)[C@@H](CC(C)C)C(=O)N(C)[C@@H](CC(C)C)C(=O)N(C)[C@@H](C(C)C)C(=O)N1C` [CYCLOSPORINE], the IC50 with Jurkat is 0.008 µM.

With `O=C1OC(=O)[C@H]2[C@@H]1[C@@H]1CC[C@H]2O1` [DEMETHYL-CANTHARIDIN], the concentration for half-maximal inhibition (IC50) in test [1] was 100 µM; with Jurkat it was more than 22 µM; in test [4], 5 µM; in test [3] it was 0.97 µM. Also, the Ki in test [2] is 3.33 µM; in test [3], 0.2 µM.
